Test results: patent US11098040B2, “Compounds and methods of use” (Ferro Therapeutics, Inc., priority 2018, dated 2021)
Where two headings read alike, the source gives them in different places.

Key:
786-O = assay: Cell proliferation (Alamar Blue) assay, 786-O renal cell carcinoma, with/without ferrostatin; type: cell-based; conditions: Homo sapiens
In short: (§1)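 Cells seeded at 5000/well, 16-24 h, then exposed 24 h at 37° C to compound, 10-0.0005 μM in 3-fold dilutions, 1% DMSO final. Alamar Blue fluorescence (ex 540/em 590 nm) read after 1.5 h; IC50 from variable-slope sigmoidal fit.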

SJSA-1 = assay: Cell proliferation (Alamar Blue) assay, SJSA-1 osteosarcoma, with/without ferrostatin; type: cell-based, human; conditions: Homo sapiens
In short: as §1

[1] = PK profile, IV plasma concentration and PK parameters; type: in vivo; conditions: Balb/C nude, mouse, iv, 5 mg/kg, 30% Kolliphore EL with 1% poloxamar 407 in water; for AUC(0-t): read-out: AUC0-t; for AUC(0-inf): read-out: AUC0-∞
Procedure: The PK profiles of compounds 148, 149, 150, 156 and 169 are shown below. Compound 156 was formulated in 30% Kolliphor EL (Cremophor EL) in water and compounds 148, 149, 150 and 169 were formulated in 30% Kolliphore EL with 1% poloxamar 407 in water. All compounds were dosed at 5 mg/kg. Blood samples were collected at various time points and analyzed using the method described above.

A431 = assay: Cell proliferation (Alamar Blue) assay, A431; type: cell-based; conditions: Homo sapiens, A-431; Cell Line A431
Procedure: Cells (SJSA-1, 786-O and A431) were seeded (5000 cells/100 μL/well) in 96-well tissue culture plate and incubated at 37° C./5% CO2 for 16-24 hours. The cells were then treated with compounds (25 μL of 5×). The compound concentrations were 10-0.0005 μM prepared in 3-fold serial dilutions with final DMSO concentration of 1%. The plates were then incubated for 24 h at 37° C./5% CO2 in a moist environment. Then Alamar Blue™ reagent (final concentration 1×-12.5 μL) was added to each well and incubated for 1.5 hours at 37° C./5% CO2. The plates were read on fluorescence reader at 540 nm excitation and 590 nm emission wavelengths. The IC50 values were subsequently determined using a sigmoidal dose-response curve (variable slope) in GraphPad Prism® 5 software.
The cell proliferation assays for the compounds shown Table 25 was performed according to the protocols described herein, including Examples 4 and 6.

A549 = assay: Cell viability assay, A549 cells; type: cell-based; conditions: Homo sapiens, A549, Cell Line A549; read-out: IC50
In short: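 Growth of A549 cells was assessed with a cell viability assay. Cells were plated at 1,000-10,000 cells/well in 96-well plates and incubated overnight at 37° C. Nine-point 3-fold DMSO dilutions, starting from 30 μM and run in duplicate, were diluted into media (final DMSO 0.25% or less). After 96 hours, CellTiter Glo luminescence was read, inhibition was calculated against DMSO controls, and IC50 was fitted in XL-fit.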

[2] = 786-0, Cell Line 786-O, read-out: IC50
[3] = SJSA-1, Cell Line SJSA-1, read-out: IC50
[4] = 786-0, 24 h, Alamar Blue, 24 h, 2 μM ferrostatin, read-out: 786-O (IC50, μM) 2 μM Ferrostatin
[5] = 786-0, 24 h, Alamar Blue, 24 h, without ferrostatin, read-out: 786-O (IC50, μM) Without Ferrostatin
[6] = SJSA-1, 24 h, Alamar Blue, 24 h, 2 μM ferrostatin, read-out: SJSA-1 (IC50, μM) 2 μM Ferrostatin
[7] = SJSA-1, 24 h, Alamar Blue, 24 h, without ferrostatin, read-out: SJSA-1 (IC50, μM) Without Ferrostatin

| SMILES | IC50 (786-O; [2]) [µM] | IC50 (SJSA-1; [3]) [µM] | C0 [1] [ng/mL] | Cmax [1] [ng/mL] | clearance [1] [mL/min/kg] | AUC(0-t) [1] [ng·h/mL] | AUC(0-inf) [1] [ng·h/mL] | Vd ([1]; read-out: Vd) [L/kg] | Vd ([1]; read-out: Vss) [L/kg] | half-life ([1]; time points considered 4-24 h) [h] | IC50 (A431) [nM] | half-life ([1]; time points considered 2-8 h) [h] | IC50 (786-O; [4]) [µM] | IC50 (786-O; [5]) [µM] | IC50 (SJSA-1; [6]) [µM] | IC50 (SJSA-1; [7]) [µM] | half-life ([1]; time points considered 0.25-2 h (1 h excluded)) [h] | IC50 (A549) [nM] |
| --- | --- | --- | --- | --- | --- | --- | --- | --- | --- | --- | --- | --- | --- | --- | --- | --- | --- | --- |
| C#CC(=O)N1[C@@H](CCCC)Cc2c([nH]c3ccccc23)[C@@H]1c1ccc(NC23CC4CC(CC(C4)C2)C3)cc1 [Compound 148, 1-((1 S,3S)-1-(4-(((3R,5R,7R)-adamantan-1-yl)amino)phenyl)-3-butyl-1,3,4,9-tetrahydro-2H-pyrido[3,4-b]indol-2-yl)prop-2-yn-1-one] | 0.006 | 0.008 | 40600 | 33000 | 4.79 | 17200 | 17400 | 2.39 | 0.47 | 5.76 | 3600 | – | – | – | – | – | – | – |
| CCCC[C@H]1Cc2c([nH]c3ccccc23)[C@H](c2ccc(NC34CC5CC(CC(C5)C3)C4)cc2)N1C(=O)CCl [Compound 149, 1-((1S,3S)-1-(4-(((3R,5R,7R)-adamantan-1-yl)amino)phenyl)-3-butyl-1,3,4,9-tetrahydro-2H-pyrido[3,4-b]indol-2-yl)-2-chloroethan-1-one] | 0.001 | 0.002 | 29400 | 22000 | 13 | 6540 | 6550 | 2.34 | 0.53 | – | 3800 | 2.12 | – | – | – | – | – | – |
| COC[C@H]1Cc2c([nH]c3ccccc23)[C@H](c2ccc(C(=O)NC3CC3)cc2F)N1C(=O)CCl [Compound 166, 4-((1S,3R)-2-(2-chloroacetyl)-3-(methoxymethyl)-2,3,4,9-tetrahydro-1H-pyrido[3,4-b]indol-1-yl)-N-cyclopropyl-3-fluorobenzamide] | 0.008 | 0.01 | – | – | – | – | – | – | – | – | > 10000 | – | 9.52 | 0.008 | > 10 | 0.01 | – | – |
| C#CC(=O)N1[C@@H](CCCC)Cc2c([nH]c3ccccc23)[C@@H]1c1ccc(S(=O)(=O)NC2CC2)cc1F [Compound 167, 4-((1S,3S)-3-butyl-2-propioloyl-2,3,4,9-tetrahydro-1H-pyrido[3,4-b]indol-1-yl)-N-cyclopropyl-3-fluorobenzenesulfonamide] | 0.005 | 0.011 | – | – | – | – | – | – | – | – | 1930 | – | 2 | 0.005 | 4.01 | 0.011 | – | – |
| C[C@H]1Cc2c([nH]c3ccccc23)[C@H](c2ccc3c(c2)CNC3=O)N1C(=O)CCl [Compound 168, 5-((1S,3S)-2-(2-chloroacetyl)-3-methyl-2,3,4,9-tetrahydro-1H-pyrido[3,4-b]indol-1-yl)isoindolin-1-one] | 0.487 | 0.56 | – | – | – | – | – | – | – | – | 5090 | – | 3.31 | 0.487 | > 10 | 0.56 | – | – |
| CCCC[C@H]1Cc2c([nH]c3ccccc23)[C@H](c2ccc(S(=O)(=O)NC3CC3)cc2F)N1C(=O)CCl [Compound 169, 4-((1S,3S)-3-butyl-2-(2-chloroacetyl)-2,3,4,9-tetrahydro-1H-pyrido[3,4-b]indol-1-yl)-N-cyclopropyl-3-fluorobenzenesulfonamide] | 0.003 | 0.001 | 5380 | 2220 | 109 | 760 | 762 | 2.39 | 0.98 | – | 3900 | – | 4.96 | 0.003 | > 10 | 0.001 | 0.25 | – |
| C[C@H]1Cc2c([nH]c3ccccc23)[C@H](c2ccc(S(=O)(=O)N(C)C3CC3)cc2F)N1C(=O)CCl [Compound 170] | 0.058 | 0.062 | – | – | – | – | – | – | – | – | 4190 | – | 8.09 | 0.058 | 9.11 | 0.062 | – | – |
| C[C@H]1Cc2c([nH]c3ccc(Cl)cc23)[C@H](c2ccc(S(=O)(=O)NC3CC3)cc2F)N1C(=O)CCl [Compound 172, 4-((1S,3S)-6-chloro-2-(2-chloroacetyl)-3-methyl-2,3,4,9-tetrahydro-1H-pyrido[3,4-b]indol-1-yl)-N-cyclopropyl-3-fluorobenzenesulfonamide] | 0.023 | 0.023 | – | – | – | – | – | – | – | – | 2110 | – | 6.76 | 0.023 | 4.1 | 0.023 | – | – |

The next lines start with the values.

| IC50 (786-O; [2]) [µM] | IC50 (SJSA-1; [3]) [µM] | C0 [1] [ng/mL] | Cmax [1] [ng/mL] | clearance [1] [mL/min/kg] | AUC(0-t) [1] [ng·h/mL] | AUC(0-inf) [1] [ng·h/mL] | Vd ([1]; read-out: Vd) [L/kg] | Vd ([1]; read-out: Vss) [L/kg] | half-life ([1]; time points considered 4-24 h) [h] | IC50 (A431) [nM] | half-life ([1]; time points considered 2-8 h) [h] | IC50 (786-O; [4]) [µM] | IC50 (786-O; [5]) [µM] | IC50 (SJSA-1; [6]) [µM] | IC50 (SJSA-1; [7]) [µM] | half-life ([1]; time points considered 0.25-2 h (1 h excluded)) [h] | IC50 (A549) [nM] | SMILES |
| --- | --- | --- | --- | --- | --- | --- | --- | --- | --- | --- | --- | --- | --- | --- | --- | --- | --- | --- |
| 0.023 | 0.034 | – | – | – | – | – | – | – | – | 3670 | – | 3.95 | 0.023 | 3.98 | 0.034 | – | – | COc1ccc2[nH]c3c(c2c1)C[C@H](C)N(C(=O)CCl)[C@H]3c1ccc(S(=O)(=O)NC2CC2)cc1F [Compound 173, 4-((3S)-2-(2-chloroacetyl)-6-methoxy-3-methyl-2,3,4,9-tetrahydro-1H-pyrido[3,4-b]indol-1-yl)-N-cyclopropyl-3-fluorobenzenesulfonamide] |
| 0.062 | 0.081 | – | – | – | – | – | – | – | – | 1550 | – | > 10 | 0.062 | 9.55 | 0.081 | – | – | C[C@H]1Cc2c([nH]c3ccccc23)[C@H](c2ccc(N3CCS(=O)(=O)CC3)cc2)N1C(=O)CCl [Compound 210, 2-chloro-1-((1S,3S)-1-(4-(1,1-dioxidothiomorpholino)phenyl)-3-methyl-1,3,4,9-tetrahydro-2H-pyrido[3,4-b]indol-2-yl)ethan-1-one] |
| 0.066 | 0.066 | – | – | – | – | – | – | – | – | 1850 | – | 5.62 | 0.066 | 4.79 | 0.066 | – | – | C[C@H]1Cc2c([nH]c3ccccc23)[C@H](c2ccc(N3CC4(COC4)C3)cc2)N1C(=O)CCl [Compound 213, 1-((1S,3S)-1-(4-(2-oxa-6-azaspiro[3.3]heptan-6-yl)phenyl)-3-methyl-1,3,4,9-tetrahydro-2H-pyrido[3,4-b]indol-2-yl)-2-chloroethan-1-one] |
| 0.019 | 0.03 | – | – | – | – | – | – | – | – | 1580 | – | 4.72 | 0.019 | 4.15 | 0.03 | – | – | C[C@H]1Cc2c([nH]c3ccccc23)[C@H](c2ccc(C(=O)NC3CCC3)nc2)N1C(=O)CCl [Compound 214, 5-((1S,3S)-2-(2-chloroacetyl)-3-methyl-2,3,4,9-tetrahydro-1H-pyrido[3,4-b]indol-1-yl)-N-cyclobutylpicolinamide] |
| 0.018 | 0.028 | – | – | – | – | – | – | – | – | 8220 | – | 9.88 | 0.018 | 9.41 | 0.028 | – | – | CC1CN(c2ccc([C@H]3c4[nH]c5ccccc5c4C[C@H](C)N3C(=O)CCl)cc2)CCO1 (stereo partly shown) [Compound 215] |
| 0.025 | 0.045 | – | – | – | – | – | – | – | – | > 10000 | – | – | – | – | – | – | – | COC[C@H]1Cc2c([nH]c3ccccc23)[C@H](c2ccc(N3CCOCC3)cc2)N1C(=O)CCl [Compound 232] |
| 0.0337 | 0.0443 | – | – | – | – | – | – | – | – | 4800 | – | – | – | – | – | – | 1970 | C[C@H]1Cc2c([nH]c3ccccc23)[C@H](c2ccc(N3CCOCC3)cc2F)N1C(=O)CCl [Compound 233] |
| 4.17 | 3.92 | – | – | – | – | – | – | – | – | 8000 | – | – | – | – | – | – | 3250 | Cc1cc(N2CCOCC2)ccc1[C@H]1c2[nH]c3ccccc3c2C[C@H](C)N1C(=O)CCl [Compound 234, 2-chloro-1-((1S,3S)-3-methyl-1-(2-methyl-4-morpholinophenyl)-1,3,4,9-tetrahydro-2H-pyrido[3,4-b]indol-2-yl)ethan-1-one] |
